Source: patent US7205308B2, “Trisubstituted 7-aminopyrazolopyrimidines as cyclin dependent kinase inhibitors” (Schering Corporation, priority 2002, dated 2007)
Several values for one entry are separate records, joined by “and”; a condition that tells them apart may be missing. Identical values can stand only once.

Experiments:
Cyclin E/CDK2 = target: T1, Cyclin E/CDK2 (Homo sapiens, UniProt P24941); test: Cyclin E/CDK2 in vitro kinase assay (SPA, 33P-ATP, biotinylated Histone H1 peptide); assay type: biochemical; conditions: recombinant cyclin E/CDK2 from SF9 cells; 8 point serial dilutions in duplicate; 1 hour at room temperature
T1 construct: The expressed protein was approximately 34 kDa in size; made in house; host or cells: SF9 insect cells (baculovirus co-infection)

Row | Compound | melting point | IC50 (Cyclin E/CDK2)
1 | O=S(=O)(O)c1cccc(Nc2cc(-c3ccccc3)nc3c(Br)cnn23)c1 | 206 to 208 °C | 
2 | CCc1cnn2c(Nc3ccc(S(=O)(=O)O)cc3)cc(-c3ccccc3)nc12 | > 250 °C | 
3 | CC(C)(C)OC(=O)NCCNS(=O)(=O)c1ccc(Nc2cc(-c3ccccc3)nc3c(Br)cnn23)cc1 | 195 to 197 °C | 
4 | CC(C)(C)OC(=O)N1CCC(NS(=O)(=O)c2ccc(Nc3cc(-c4ccccc4)nc4c(Br)cnn34)cc2)CC1 | 127 to 129 °C | 
5 | O=S(=O)(NC1CCCC1)c1ccc(Nc2cc(-c3ccccc3)nc3c(Br)cnn23)cc1 | > 200 °C (dec.) | 
6 | O=S(=O)(NCc1ccccn1)c1ccc(Nc2cc(-c3ccccc3)nc3c(Br)cnn23)cc1 | 101 to 103 °C | 
7 | O=S(=O)(NCc1cccnc1)c1ccc(Nc2cc(-c3ccccc3)nc3c(Br)cnn23)cc1 | 110 to 114 °C | 
8 | O=S(=O)(O)CCNS(=O)(=O)c1ccc(Nc2cc(-c3ccccc3)nc3c(Br)cnn23)cc1 | 206 to 208 °C | 
9 | CN1CCN(S(=O)(=O)c2ccc(Nc3cc(-c4ccccc4)nc4c(Br)cnn34)cc2)CC1 | 228 to 230 °C | 
10 | O=S(=O)(N[C@@H](CO)Cc1ccccc1)c1ccc(Nc2cc(-c3ccccc3)nc3c(Br)cnn23)cc1 | 108 to 110 °C | 
11 | O=S(=O)(N[C@H](CO)Cc1ccccc1)c1ccc(Nc2cc(-c3ccccc3)nc3c(Br)cnn23)cc1 | 102 to 105 °C | 
12 | O=S(=O)(NCCO)c1cccc(Nc2cc(-c3ccccc3)nc3c(Br)cnn23)c1 | 87 to 90 °C | 
13 | CC(O)CNS(=O)(=O)c1cccc(Nc2cc(-c3ccccc3)nc3c(Br)cnn23)c1 (stereo not shown) | 115 to 120 °C | 
14 | CCc1cnn2c(Nc3ccc(S(=O)(=O)NCCN(C)C)cc3)cc(-c3ccccc3)nc12 | 99 to 101 °C | 
15 | CC(C)c1cc(Nc2ccccc2)n2ncc(Br)c2n1 | 166 to 168 °C | 
16 | CC(C)(C)c1cc(Nc2ccccc2)n2ncc(Br)c2n1 | 144 °C | 

Row | Compound | melting point | IC50 (Cyclin E/CDK2)
17 | CS(=O)(=O)c1ccc(Nc2cc(-c3ccccc3Cl)nc3c(Br)cnn23)cc1 [Example 1] |  | 0.4 µM and 1.4 µM
18 | Clc1ccccc1-c1cc(Nc2ccccc2)n2ncc(Br)c2n1 [Example 2] |  | 0.51 µM
19 | Fc1ccccc1-c1cc(Nc2ccccc2)n2ncc(Cl)c2n1 [Example 3] | 112 to 116 °C | 0.042 µM
20 | O=S(=O)(O)c1ccc(Nc2cc(-c3ccccc3)nc3c(Br)cnn23)cc1 [Example 22] | > 250 °C | 0.082 µM
21 | CCNS(=O)(=O)c1ccc(Nc2cc(-c3ccccc3)nc3c(Br)cnn23)cc1 [Example 28] | 101 to 104 °C | 0.08 µM
22 | O=S(=O)(NCCO)c1ccc(Nc2cc(-c3ccccc3)nc3c(Br)cnn23)cc1 [Example 30] | 175 to 177 °C | 0.029 µM
23 | NS(=O)(=O)c1ccc(Nc2cc(-c3ccccc3)nc3c(Br)cnn23)cc1 [Example 31] | 206 to 208 °C | 0.045 µM
24 | CNS(=O)(=O)c1ccc(Nc2cc(-c3ccccc3)nc3c(Br)cnn23)cc1 [Example 32] | 231 to 233 °C | 0.057 µM
25 | O=S(=O)(Nc1ccncc1)c1ccc(Nc2cc(-c3ccccc3)nc3c(Br)cnn23)cc1 [Example 38] | 192 to 195 °C | 0.04 µM
26 | COCCNS(=O)(=O)c1ccc(Nc2cc(-c3ccccc3)nc3c(Br)cnn23)cc1 [Example 42] | 172 to 173 °C | 0.07 µM
27 | CN(C)CCNS(=O)(=O)c1ccc(Nc2cc(-c3ccccc3)nc3c(Br)cnn23)cc1 [Example 43] | 165 to 167 °C | 0.034 µM
28 | O=S(=O)(c1ccc(Nc2cc(-c3ccccc3)nc3c(Br)cnn23)cc1)N(CCO)CCO [Example 47] | 90 to 92 °C | 0.034 µM
29 | CN(C)CC(C)(C)CNS(=O)(=O)c1ccc(Nc2cc(-c3ccccc3)nc3c(Br)cnn23)cc1 [Example 48] | 163 to 165 °C | 0.025 µM
30 | O=S(=O)(NC(CO)CO)c1ccc(Nc2cc(-c3ccccc3)nc3c(Br)cnn23)cc1 [Example 50] | 122 to 124 °C | 0.03 µM
31 | CN(C)CCCNS(=O)(=O)c1ccc(Nc2cc(-c3ccccc3)nc3c(Br)cnn23)cc1 [Example 53] | 78 to 80 °C | 0.011 µM

The next lines start with results.

Row | melting point | Compound | IC50 (Cyclin E/CDK2)
32 | 210 to 211 °C | CS(=O)(=O)c1ccc(Nc2cc(-c3ccccc3)nc3c(C4CC4)cnn23)cc1 | 
33 | 213 to 216 °C | CC(C)c1cnn2c(Nc3ccc(S(C)(=O)=O)cc3)cc(-c3ccccc3)nc12 | 
34 | 249 to 253 °C | CS(=O)(=O)c1ccc(Nc2cc(-c3ccc(Cl)cc3)nc3c(Br)cnn23)cc1 | 
35 | 192 to 194 °C | CCc1cnn2c(Nc3ccc(S(C)(=O)=O)cc3)cc(-c3ccccc3)nc12 | 
36 | 202 to 204 °C | CS(=O)(=O)c1ccc(Nc2cc(-c3ccccc3)nc3c(Br)cnn23)cc1 | 
37 | > 250 °C | O=S(=O)(O)c1ccc(Nc2cc(-c3ccccc3F)nc3c(Br)cnn23)cc1 | 
38 | 237 to 239 °C | CN(C)S(=O)(=O)c1ccc(Nc2cc(-c3ccccc3)nc3c(Br)cnn23)cc1 | 
39 | 216 to 218 °C | O=S(=O)(NCc1ccccc1)c1ccc(Nc2cc(-c3ccccc3)nc3c(Br)cnn23)cc1 | 
40 | 165 to 168 °C | O=S(=O)(NCCCO)c1ccc(Nc2cc(-c3ccccc3)nc3c(Br)cnn23)cc1 | 
41 | 147 to 150 °C | O=S(=O)(Nc1ccccc1)c1ccc(Nc2cc(-c3ccccc3)nc3c(Br)cnn23)cc1 | 
42 | 232 to 235 °C | CS(=O)(=O)c1ccc(Nc2cc(-c3ccccc3F)nc3c(Cl)cnn23)cc1 | 
43 | > 200 °C (dec.) | CC(CO)NS(=O)(=O)c1ccc(Nc2cc(-c3ccccc3)nc3c(Br)cnn23)cc1 (stereo not shown) | 
44 | 117 to 118 °C | CS(=O)(=O)c1ccc(Nc2cc(-c3ccccc3F)nc3c(Br)cnn23)cc1 | 
45 | 98 to 100 °C | CC(CO)(CO)NS(=O)(=O)c1ccc(Nc2cc(-c3ccccc3)nc3c(Br)cnn23)cc1 | 
46 | 182 to 184 °C | COC(=O)CNS(=O)(=O)c1ccc(Nc2cc(-c3ccccc3)nc3c(Br)cnn23)cc1 | 
47 | 210 to 212 °C | CS(=O)(=O)c1ccc(Nc2cc(-c3cccc(C(F)(F)F)c3)nc3c(Br)cnn23)cc1 | 
48 | 214 to 215 °C | CC(C)c1cc(Nc2ccc(S(C)(=O)=O)cc2)n2ncc(Br)c2n1 | 
